Test systems include RPMI-8226 leukemia; SK-OV-3 ovarian; HOP-92 NSCLC; SK-MEL-2 melanoma; SN12C renal; HL-60(TB) leukemia; HT29 colon; UACC-257 melanoma; UO-31 renal; CAKI-1 renal.
What all share (test): NCI-60 cell line screen, 48 h

SMILES strings stand for the structures. Several values for one entry are separate records, joined by “and”; a condition that tells them apart may be missing. Equal values may be shown once.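 Briefly, cells in 96-well plates were exposed to five compound concentrations for 48 h, and endpoints were estimated by linear interpolation. GI50 marks 50% less growth. TGI denotes the concentration required for complete inhibition of growth.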 A value given as a limit tells only on which side of the number the result lay.

Consider `Nc1ccc(-n2c(=O)oc3ccc(Cl)cc3c2=O)c(Cl)c1`, for which the GI50 in the assay with RPMI-8226 leukemia is 0.0558 µM; in the assay on SK-OV-3 ovarian, 0.0934 µM; with HOP-92 NSCLC it was 0.0281 µM; with SK-MEL-2 melanoma, 0.207 µM; with SN12C renal, 0.0971 µM; in the assay on HL-60(TB) leukemia it was 0.0499 µM. In addition, the GI50 with HT29 colon was 1.17 µM; in the assay with UACC-257 melanoma, 0.0741 µM; in the assay with UO-31 renal, 0.0872 µM; with CAKI-1 renal, 0.077 µM. Further, the TGI worked out at 0.256 µM in the assay with RPMI-8226 leukemia; 1.6 µM in the assay on SK-OV-3 ovarian; 0.168 µM with HOP-92 NSCLC; 0.807 µM in the assay with SK-MEL-2 melanoma; 1.07 µM in the assay with SN12C renal; 0.267 µM with HL-60(TB) leukemia. For the same molecule, the TGI with HT29 colon is > 35.3 µM; in the assay with UACC-257 melanoma, 0.433 µM; in the assay with UO-31 renal it was 0.533 µM; in the assay on CAKI-1 renal, 0.479 µM.

Regarding `CC(=O)NC1=CC(=O)c2cc(C)cc(O)c2C1=O`, the TGI was 12.2 µM in the assay with RPMI-8226 leukemia; > 83.5 µM in the assay with SK-OV-3 ovarian; 22.7 µM in the assay with HOP-92 NSCLC; 17.9 µM in the assay on SK-MEL-2 melanoma; 14.2 µM in the assay on SN12C renal; 5.24 µM in the assay on HL-60(TB) leukemia. Moreover, the TGI with HT29 colon worked out at 46.9 µM; in the assay with UACC-257 melanoma, 4.79 µM; in the assay on UO-31 renal it was 20 µM; in the assay with CAKI-1 renal, 42.9 µM.

Consider `CCOc1cc(C2SCC(=O)N2c2nc3cc4sc(N5C(=O)CSC5c5ccc(O)c(OCC)c5)nc4cc3s2)ccc1O` (stereo not drawn), for which the TGI in the assay with RPMI-8226 leukemia is > 100 µM; in the assay with SK-OV-3 ovarian, > 100 µM; in the assay with HOP-92 NSCLC, > 88.6 µM; in the assay on SK-MEL-2 melanoma, > 100 µM; with SN12C renal, > 100 µM; with HL-60(TB) leukemia, > 100 µM. Moreover, the TGI with HT29 colon was > 100 µM; with UACC-257 melanoma, > 58.5 µM; in the assay on UO-31 renal it was > 100 µM; in the assay with CAKI-1 renal it was > 100 µM.

As for `O=C(Nc1cccc(-n2ccc3c(NC(=O)c4ccccc4)nccc32)c1)c1cc(N2CCOCC2)cc(C(F)(F)F)c1`, the GI50 is 0.223 µM in the assay with RPMI-8226 leukemia; 0.142 µM in the assay on SK-OV-3 ovarian; 0.3 µM in the assay with HOP-92 NSCLC; 0.167 µM in the assay on SK-MEL-2 melanoma; 0.467 µM in the assay on SN12C renal; 0.514 µM in the assay with HL-60(TB) leukemia. Moreover, the GI50 in the assay with HT29 colon is 0.0312 µM; in the assay on UACC-257 melanoma, 0.109 µM; in the assay on UO-31 renal, 0.754 µM; with CAKI-1 renal it was 0.0641 µM. For the same molecule, the TGI is > 100 µM in the assay on SK-OV-3 ovarian; > 26.2 µM with HOP-92 NSCLC; 3.82 µM in the assay on SK-MEL-2 melanoma; > 100 µM with SN12C renal; > 100 µM in the assay on HL-60(TB) leukemia; 0.446 µM with HT29 colon. In addition, the TGI in the assay with UACC-257 melanoma and in the assay with UO-31 renal was > 100 µM each time.

For the molecule `COc1ccc(C2=CN3CCC[C@H]3C=C2c2cc(O)c(OC)c(OC)c2)cc1OC`, the TGI in the assay with RPMI-8226 leukemia was 0.0806 µM and 0.202 µM; with SK-OV-3 ovarian, 0.221 µM; with HOP-92 NSCLC, 0.0294 µM; in the assay with SK-MEL-2 melanoma, 0.0161 µM; with SN12C renal it was 0.0568 µM and 0.189 µM; in the assay with HL-60(TB) leukemia, 0.161 µM and 0.0175 µM. Further, the TGI in the assay with HT29 colon is 0.113 µM and 0.0377 µM; with UACC-257 melanoma, 0.0899 µM; in the assay with UO-31 renal it was 0.0905 µM and 0.0233 µM; with CAKI-1 renal it was 0.0522 µM.

For `CCC(C)C1(O)OC2CC3(C)OC(=CC3=O)/C(C)=C\C3OC(=O)C1(C)C32` (stereo not drawn), the TGI in the assay on RPMI-8226 leukemia is > 100 µM; in the assay with SK-OV-3 ovarian, > 100 µM; with HOP-92 NSCLC it was 31.3 µM; in the assay on SK-MEL-2 melanoma, 96.5 µM; in the assay with SN12C renal it was 28.6 µM; with HL-60(TB) leukemia it was 63.8 µM. The TGI turned out to be 34.3 µM in the assay on HT29 colon, 45.7 µM with UACC-257 melanoma, 47.4 µM in the assay on UO-31 renal and 31.5 µM with CAKI-1 renal.

Turning to `O=C1C(N=Nc2ccc(-c3nc4ccccc4[nH]3)cc2)NC(=S)N1c1ccccc1` (stereo not drawn), the TGI in the assay on RPMI-8226 leukemia is 60.2 µM; in the assay with SK-OV-3 ovarian it was > 100 µM; in the assay on HOP-92 NSCLC, > 100 µM; in the assay on SK-MEL-2 melanoma, > 100 µM; with SN12C renal, > 100 µM; with HL-60(TB) leukemia it was > 100 µM. The TGI with HT29 colon, with UACC-257 melanoma, in the assay with UO-31 renal and with CAKI-1 renal was > 100 µM in each case.

As to `NC(=O)NCCCC(NC(=O)OCCCCCn1ccc(=O)[nH]c1=O)C(=O)O` (stereo not drawn), the TGI in the assay on RPMI-8226 leukemia, in the assay with SK-OV-3 ovarian, with HOP-92 NSCLC, with SK-MEL-2 melanoma, in the assay on SN12C renal and in the assay on HL-60(TB) leukemia was > 100 µM each time. Further, the TGI in the assay on HT29 colon, in the assay with UACC-257 melanoma, in the assay with UO-31 renal and in the assay on CAKI-1 renal was > 100 µM throughout.

On to `CN(C)CCOC1(CC2CCCCC2)CCC(C(C)(C)C)CC1` (stereo not drawn), for which the TGI is 4.9 µM in the assay on RPMI-8226 leukemia; 24.7 µM with SK-OV-3 ovarian; 17.5 µM with HOP-92 NSCLC; 13.7 µM in the assay on SK-MEL-2 melanoma; 20.6 µM in the assay on SN12C renal; 7.35 µM in the assay with HL-60(TB) leukemia. For the same molecule, the TGI in the assay on HT29 colon amounted to 7.02 µM; in the assay on UACC-257 melanoma, 11.8 µM; in the assay on UO-31 renal, 15.6 µM; in the assay with CAKI-1 renal, 19.1 µM.

`Nc1nc(SCCC/C=C/I)nc2c1ncn2C1OC(CO)C(O)C1O` (stereo not drawn): the TGI in the assay with RPMI-8226 leukemia, in the assay on SK-OV-3 ovarian, in the assay with HOP-92 NSCLC, with SK-MEL-2 melanoma, in the assay with SN12C renal and in the assay on HL-60(TB) leukemia was > 202 µM each time. The TGI in the assay on HT29 colon, in the assay on UACC-257 melanoma, in the assay with UO-31 renal and in the assay with CAKI-1 renal was > 202 µM in each case.

For `O=[N+]([O-])c1ccc(Cl)cc1C=NC12CC3CC(CC(C3)C1)C2`, the TGI with RPMI-8226 leukemia was 57.5 µM; with SK-OV-3 ovarian it was > 100 µM; with HOP-92 NSCLC, > 100 µM; with SK-MEL-2 melanoma, > 100 µM; in the assay with SN12C renal, > 100 µM; with HL-60(TB) leukemia it was 15.6 µM. Besides, the TGI in the assay on HT29 colon was > 79.9 µM; in the assay on UACC-257 melanoma, > 31.6 µM; in the assay on UO-31 renal, > 100 µM; with CAKI-1 renal it was > 100 µM.

Consider `OCCO[P+]1(OCCO)n2c3ccc2C(c2ccccc2)=C2C=CC(=N2)C(c2ccccc2)=c2ccc(n21)=C(c1ccccc1)C1=NC(=C3c2ccccc2)C=C1`, for which the TGI worked out at 0.0657 µM in the assay on RPMI-8226 leukemia; 0.569 µM with SK-OV-3 ovarian; 0.399 µM in the assay with HOP-92 NSCLC; 0.0438 µM in the assay on SK-MEL-2 melanoma; 0.125 µM with SN12C renal; 0.222 µM in the assay on HL-60(TB) leukemia. Further, the TGI in the assay on HT29 colon came out at 3.36 µM; in the assay on UACC-257 melanoma it was 0.0545 µM; in the assay with UO-31 renal, 4.06 µM; in the assay with CAKI-1 renal, 2.59 µM.

With `CC(=N\N=C\c1ccccn1)/C(C)=N/N=C(C)/C(C)=N/N=C(C)/C(C)=N/N=C/c1ccccn1`, the TGI in the assay with RPMI-8226 leukemia, in the assay on SK-OV-3 ovarian, with HOP-92 NSCLC, with SK-MEL-2 melanoma, in the assay on SN12C renal and with HL-60(TB) leukemia was > 100 µM each time. The TGI in the assay with HT29 colon, in the assay with UACC-257 melanoma, with UO-31 renal and in the assay with CAKI-1 renal was > 100 µM in each case.

On to `CC(C)(C)OC(=O)NCC(=O)N1CCCN(C(=O)CNC(=O)OC(C)(C)C)CC1`, for which the TGI with RPMI-8226 leukemia, with SK-OV-3 ovarian, in the assay with HOP-92 NSCLC, with SK-MEL-2 melanoma, in the assay with SN12C renal and in the assay with HL-60(TB) leukemia was > 100 µM each time. Besides, the TGI with HT29 colon, with UACC-257 melanoma, in the assay with UO-31 renal and with CAKI-1 renal was > 100 µM throughout.

As to `NCCCCNC1(c2cc3ccccc3s2)CCCCC1`, the TGI turned out to be 6.1 µM with RPMI-8226 leukemia; 28 µM with SK-OV-3 ovarian; 20.8 µM in the assay with HOP-92 NSCLC; 3.58 µM in the assay on SK-MEL-2 melanoma; 25.1 µM in the assay with SN12C renal; 12.6 µM in the assay with HL-60(TB) leukemia. Moreover, the TGI in the assay on HT29 colon is 9.7 µM; in the assay with UACC-257 melanoma it was 3.38 µM; with UO-31 renal, 9.94 µM; in the assay with CAKI-1 renal it was 28.1 µM.

`COc1ccc(/C=C2\CN(C)Cc3c2[nH]c(=O)c(C#N)c3-c2ccc(OC)cc2)cc1`: the TGI is 71.6 µM with RPMI-8226 leukemia; > 100 µM in the assay with SK-OV-3 ovarian; > 100 µM in the assay with HOP-92 NSCLC; > 100 µM in the assay with SK-MEL-2 melanoma; > 100 µM in the assay on SN12C renal; 31.8 µM in the assay with HL-60(TB) leukemia. Also, the TGI in the assay with HT29 colon, with UACC-257 melanoma, in the assay on UO-31 renal and with CAKI-1 renal was > 100 µM in each case.

Take `COc1ccc(C2(C3c4cc(OC)c(OC)cc4CCN3C)SCCCS2)cc1O` (stereo not drawn): the TGI in the assay with RPMI-8226 leukemia, in the assay with SK-OV-3 ovarian, with HOP-92 NSCLC, in the assay with SK-MEL-2 melanoma, in the assay on SN12C renal and in the assay with HL-60(TB) leukemia was > 100 µM throughout. The TGI with HT29 colon, in the assay with UACC-257 melanoma, in the assay with UO-31 renal and in the assay with CAKI-1 renal was > 100 µM each time.

Regarding `CCOC(=O)C(=Cn1c(=S)[nH]c2ccc([N+](=O)[O-])cc21)C(=O)OCC`, the TGI with RPMI-8226 leukemia, in the assay with SK-OV-3 ovarian, with HOP-92 NSCLC, with SK-MEL-2 melanoma, in the assay on SN12C renal and in the assay with HL-60(TB) leukemia was > 100 µM in each case. For the same molecule, the TGI with HT29 colon, in the assay on UACC-257 melanoma, in the assay on UO-31 renal and in the assay on CAKI-1 renal was > 100 µM in each case.

The values above are taken from PubChem BioAssay (NCI).
